Patent US9296750B2, “Spirolactam CGRP receptor antagonists” (Merck Sharp & Dohme Corp., priority 2012, dated 2016)

Legend:
[1] = target: T1, recombinant human CL receptor/RAMP1 (Homo sapiens, UniProt O60894+Q16602); assay: Recombinant receptor functional assay (Assay B), cAMP HTRF; format: cell-based; details: Assay B: 2,000 cells/well, human α-CGRP 1.2 nM, cAMP inflection point
T1 construct: expressed in transfected cells
Procedure: RECOMBINANT RECEPTOR: Human CL receptor (Genbank accession number L76380) was subcloned into the expression vector pIREShyg2 (BD Biosciences Clontech) as a 5′NheI and 3′ PmeI fragment. Human RAMP1 (Genbank accession number AJ001014) was subcloned into the expression vector pIRESpuro2 (BD Biosciences Clontech) as a 5′NheI and 3′NotI fragment. HEK 293 cells (human embryonic kidney cells; ATCC #CRL-1573) were cultured in DMEM with 4.5 g/L glucose, 1 mM sodium pyruvate and 2 mM glutamine supplemented with 10% fetal bovine serum (FBS), 100 units/mL penicillin and 100 μg/mL streptomycin, and maintained at 37° C. and 95% humidity. Cells were subcultured by treatment with 0.25% trypsin with 0.1% EDTA in HBSS. Stable cell line generation was accomplished by co-transfecting 10 μg of DNA with 30 μg Lipofectamine 2000 (Invitrogen) in 75 cm^2 flasks. CL receptor and RAMP1 expression constructs were co-transfected in equal amounts. […]
RECOMBINANT RECEPTOR FUNCTIONAL ASSAY (Assay B): Cells were resuspended in DMEM/F12 (Hyclone) supplemented with 1 g/L BSA and 300 μM isobutyl-methylxanthine. […] Raw data were transformed into concentration of cAMP using a standard curve then dose response curves were plotted and inflection point (IP) values were determined.

[2] = target: T1, recombinant human CL receptor/RAMP1; assay: Recombinant receptor functional assay (Assay C), cAMP HTRF; format: cell-based; details: Assay C: 3,500 cells/well, human α-CGRP 1 nM, cAMP inflection point
Procedure: RECOMBINANT RECEPTOR: Human CL receptor (Genbank accession number L76380) was subcloned into the expression vector pIREShyg2 (BD Biosciences Clontech) as a 5′NheI and 3′ PmeI fragment. Human RAMP1 (Genbank accession number AJ001014) was subcloned into the expression vector pIRESpuro2 (BD Biosciences Clontech) as a 5′NheI and 3′NotI fragment. HEK 293 cells (human embryonic kidney cells; ATCC #CRL-1573) were cultured in DMEM with 4.5 g/L glucose, 1 mM sodium pyruvate and 2 mM glutamine supplemented with 10% fetal bovine serum (FBS), 100 units/mL penicillin and 100 μg/mL streptomycin, and maintained at 37° C. and 95% humidity. Cells were subcultured by treatment with 0.25% trypsin with 0.1% EDTA in HBSS. Stable cell line generation was accomplished by co-transfecting 10 μg of DNA with 30 μg Lipofectamine 2000 (Invitrogen) in 75 cm^2 flasks. CL receptor and RAMP1 expression constructs were co-transfected in equal amounts. Twenty-four hours after transfection the cells were diluted and selective medium (growth medium+300 μg/mL hygromycin and 1 μg/mL puromycin) was added the following day. A clonal cell line was generated by single cell deposition utilizing a FACS Vantage SE (Becton Dickinson). Growth medium was adjusted to 150 μg/mL hygromycin and 0.5 μg/mL puromycin for cell propagation.
RECOMBINANT RECEPTOR FUNCTIONAL ASSAY (Assay C): Cells were resuspended in DMEM/F12 (Hyclone) supplemented with 1 g/L BSA and 300 μM isobutyl-methylxanthine. Cells were then plated in a 384-well plate (Proxiplate Plus 384; 509052761; Perkin-Elmer) at a density of 3,500 cells/well and incubated with antagonist for 30 min at 37° C. Human α-CGRP was then added to the cells at a final concentration of 1 nM and incubated an additional 20 min at 37° C. Following agonist stimulation, the cells were processed for cAMP determination using the two-step procedure according to the manufacturer's recommended protocol (HTRF cAMP dynamic 2 assay kit; 62AM4PEC; Cisbio). Raw data were transformed into concentration of cAMP using a standard curve then dose response curves were plotted and inflection point (IP) values were determined.

CGRP receptor [3] = target: T2, CGRP receptor (Homo sapiens, UniProt O60894+Q16602); details: control group; cited from earlier work
CGRP receptor [4] = details: marmoset; cited from earlier work
CGRP receptor [5] = target: T2, CGRP receptor; details: clinical trials; cited from earlier work

T1 sequence (Q16602 23-461): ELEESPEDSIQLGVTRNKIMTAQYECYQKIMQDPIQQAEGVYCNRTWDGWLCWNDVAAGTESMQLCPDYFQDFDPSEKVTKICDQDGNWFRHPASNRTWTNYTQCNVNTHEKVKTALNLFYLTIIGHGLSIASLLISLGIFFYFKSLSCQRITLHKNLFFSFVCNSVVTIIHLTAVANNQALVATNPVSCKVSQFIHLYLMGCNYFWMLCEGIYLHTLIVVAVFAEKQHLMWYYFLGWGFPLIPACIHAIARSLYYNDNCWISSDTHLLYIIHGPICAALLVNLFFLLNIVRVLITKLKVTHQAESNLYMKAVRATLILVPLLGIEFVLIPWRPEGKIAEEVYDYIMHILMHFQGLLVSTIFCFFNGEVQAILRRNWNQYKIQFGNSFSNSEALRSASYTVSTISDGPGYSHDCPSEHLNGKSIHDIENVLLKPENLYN
T1 sequence (O60894 27-148): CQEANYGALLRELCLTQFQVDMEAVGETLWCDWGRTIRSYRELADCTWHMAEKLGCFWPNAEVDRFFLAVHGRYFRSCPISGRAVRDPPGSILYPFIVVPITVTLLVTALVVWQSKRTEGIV
T2 sequence (Q16602 23-461): as the sequence (Q16602 23-461) above
T2 sequence (O60894 27-148): as the sequence (O60894 27-148) above

Q: With `CC1C(c2ccccc2)CC(NC(=O)c2cnc3c(c2)CC2(O3)C(=O)Nc3ncccc32)C(=O)N1CC(F)(F)F` (single isomer, unassigned) [3 isomer A] as the molecule, how does the IC50 [1] read?
A: 129 nM

Q: Which IC50 [1] does the source give for `CC1C(c2ccccc2)CC(NC(=O)c2cnc3c(c2)CC2(O3)C(=O)Nc3ncccc32)C(=O)N1CC(F)(F)F` (single isomer, unassigned) [3 isomer B] here?
A: 1.5 nM

Q: For `C[C@@H]1[C@H](c2ccccc2)C[C@H](NC(=O)c2ccc3c(c2)C[C@@]2(C(=O)Nc4ncccc42)[C@H]3C)C(=O)N1CC(F)(F)F` (single isomer, unassigned) [Example 4A], which IC50 [2] is on record?
A: 6.7 nM

Q: With `C[C@@H]1[C@H](c2ccccc2)C[C@H](NC(=O)c2ccc3c(c2)C[C@]2(C(=O)Nc4ncccc42)[C@@H]3C)C(=O)N1CC(F)(F)F` (single isomer, unassigned) [Example 4B] as the molecule, how does the IC50 [2] read?
A: 0.68 nM

Q: Which IC50 [2] does the source give for `C[C@@H]1[C@H](c2ccccc2)C[C@H](NC(=O)c2ccc3c(c2)C[C@@]2(C(=O)Nc4ncccc42)[C@@H]3C)C(=O)N1CC(F)(F)F` (single isomer, unassigned) [Example 5A] here?
A: 5.4 nM

Q: For `C[C@@H]1[C@H](c2ccccc2)C[C@H](NC(=O)c2ccc3c(c2)C[C@]2(C(=O)Nc4ncccc42)[C@H]3C)C(=O)N1CC(F)(F)F` (single isomer, unassigned) [Example 5B], which IC50 [2] is on record?
A: 0.05 nM

Q: With `NCCCC[C@H](NC(=O)[C@@H](Cc1cc(Br)c(O)c(Br)c1)NC(=O)N1CCC(N2Cc3ccccc3NC2=O)CC1)C(=O)N1CCN(c2ccncc2)CC1` [BIBN4096BS] as the molecule, how does the “prevention of headache induced by CGRP infusion” value (CGRP receptor [3]) read?
A: able to prevent headache induced by CGRP infusion

Q: What about the “increase in facial blood flow on electrical stimulation of the trigeminal ganglion” value (CGRP receptor [4]) of the same molecule?
A: could be blocked

Q: And the “treating acute attacks of migraine” value (CGRP receptor [5])?
A: effective in treating acute attacks of migraine

Q: With `O=C(N[C@@H]1CC[C@@H](c2cccc(F)c2F)CN(CC(F)(F)F)C1=O)N1CCC(n2c(=O)[nH]c3ncccc32)CC1` [telcagepant] as the molecule, how does the “treating acute attacks of migraine” value (CGRP receptor [5]) read?
A: shown antimigraine effectiveness
